According to the supplement of paper PMC10307832:

What was measured:
Assay in all cases: relative viability (nuclei count vs DMSO), 5 days (fraction); higher = more cells survive
[1] = compound: COc1cc2nccc(Oc3ccc(NC(=O)C4(C(=O)Nc5ccc(F)cc5)CC4)cc3)c2cc1OC [Cabozantinib] + CCNC(=O)c1noc(-c2cc(C(C)C)c(O)cc2O)c1-c1ccc(CN2CCOCC2)cc1 [Luminespib] (partner 0.01 µM)
Summary of the method: (§1)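 The day after seeding in 1536-well plates, lung cancer cell lines were treated by pin tool with a single drug, or with a fixed anchor-drug dose together with five library-drug doses (not always all listed) in √10 steps. After 5 days, a combined fix-and-stain solution (final 0.05% Triton X-100, 1% formaldehyde, 1 ug/ml Hoechst) was added. Nuclei counted on 4× images gave relative viability as treated counts over vehicle counts, reported as the median of duplicate plates.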

[2] = compound: COc1cc2nccc(Oc3ccc(NC(=O)C4(C(=O)Nc5ccc(F)cc5)CC4)cc3)c2cc1OC [Cabozantinib] + Cc1nc(Nc2ncc(C(=O)Nc3c(C)cccc3Cl)s2)cc(N2CCN(CCO)CC2)n1 [Dasatinib] (partner 0.075 µM)
Summary of the method: as §1

[3] = compound: COc1cc2nccc(Oc3ccc(NC(=O)C4(C(=O)Nc5ccc(F)cc5)CC4)cc3)c2cc1OC [Cabozantinib] + Cc1cc(Nc2cc(N3CCN(C)CC3)nc(Sc3ccc(NC(=O)C4CC4)cc3)n2)n[nH]1 [Tozasertib] (partner 0.1 µM)
Summary of the method: as §1

[4] = compound: O[C@@H](COc1cccc2ncccc12)CN1CCN([C@@H]2c3ccccc3[C@@H]3[C@H](c4ccccc42)C3(F)F)CC1 [Zosuquidar] + O=C(CCCCCCC(=O)Nc1ccccc1)NO [Vorinostat] (partner 1 µM)
Summary of the method: as §1

UMC-11
relative viability ([1]; first compound 0.02 µM): 0.941 | relative viability ([1]; first compound 0.06325 µM): 1.09 | relative viability ([1]; first compound 0.2 µM): 1.1 | relative viability ([1]; first compound 0.6325 µM): 1.09 | relative viability ([1]; first compound 2 µM): 1.09 | relative viability ([2]; first compound 0.02 µM): 0.494 | relative viability ([2]; first compound 0.06325 µM): 0.492 | relative viability ([2]; first compound 0.2 µM): 0.453 | relative viability ([2]; first compound 0.6325 µM): 0.493 | relative viability ([2]; first compound 2 µM): 0.452 | relative viability ([3]; first compound 0.02 µM): 0.192 | relative viability ([3]; first compound 0.06325 µM): 0.2 | relative viability ([3]; first compound 0.2 µM): 0.203 | relative viability ([3]; first compound 0.6325 µM): 0.204 | relative viability ([3]; first compound 2 µM): 0.202 | relative viability ([4]; first compound 0.01 µM): 0.381 | relative viability ([4]; first compound 0.03162 µM): 0.483 | relative viability ([4]; first compound 0.1 µM): 0.505 | relative viability ([4]; first compound 0.3162 µM): 0.432 | relative viability ([4]; first compound 1 µM): 0.387
